Experiment [1] concerns the target T1, Lysosomal alpha-glucosidase (Homo sapiens, UniProt P10253). As to the kind of experiment: Inhibition of human lysosomal alpha glucosidase assessed as release of p-nitrophenol using p-nitrophenyl glycoside as substrate by spectrometric assay.
The nature of experiment [2]: Inhibition of bovine liver beta-glucosidase assessed as release of p-nitrophenol using p-nitrophenyl glycoside as substrate by spectrometric assay. On the set-up: species or system Bos taurus.
For experiment [3], the target named is T2, Sucrase-isomaltase, intestinal (Rattus norvegicus, UniProt P23739). Nature of the experiment: Inhibition of rat intestinal sucrase assessed as release of p-nitrophenol using p-nitrophenyl glycoside as substrate by spectrometric assay.
A further experiment deals with Prunus dulcis. Nature of the experiment: Inhibition of almond beta-glucosidase assessed as release of p-nitrophenol at 1000 uM using p-nitrophenyl glycoside as substrate by spectrometric assay relative to control.
The target of experiment [4] is T2, Sucrase-isomaltase, intestinal. As to the kind of experiment: Inhibition of rat intestinal isomaltase assessed as release of p-nitrophenol using p-nitrophenyl glycoside as substrate by spectrometric assay.
In experiment [5] the target is T3, Alpha-mannosidase (Canavalia ensiformis) (UniProt C0HJB3).
T3 sequence (whole entry): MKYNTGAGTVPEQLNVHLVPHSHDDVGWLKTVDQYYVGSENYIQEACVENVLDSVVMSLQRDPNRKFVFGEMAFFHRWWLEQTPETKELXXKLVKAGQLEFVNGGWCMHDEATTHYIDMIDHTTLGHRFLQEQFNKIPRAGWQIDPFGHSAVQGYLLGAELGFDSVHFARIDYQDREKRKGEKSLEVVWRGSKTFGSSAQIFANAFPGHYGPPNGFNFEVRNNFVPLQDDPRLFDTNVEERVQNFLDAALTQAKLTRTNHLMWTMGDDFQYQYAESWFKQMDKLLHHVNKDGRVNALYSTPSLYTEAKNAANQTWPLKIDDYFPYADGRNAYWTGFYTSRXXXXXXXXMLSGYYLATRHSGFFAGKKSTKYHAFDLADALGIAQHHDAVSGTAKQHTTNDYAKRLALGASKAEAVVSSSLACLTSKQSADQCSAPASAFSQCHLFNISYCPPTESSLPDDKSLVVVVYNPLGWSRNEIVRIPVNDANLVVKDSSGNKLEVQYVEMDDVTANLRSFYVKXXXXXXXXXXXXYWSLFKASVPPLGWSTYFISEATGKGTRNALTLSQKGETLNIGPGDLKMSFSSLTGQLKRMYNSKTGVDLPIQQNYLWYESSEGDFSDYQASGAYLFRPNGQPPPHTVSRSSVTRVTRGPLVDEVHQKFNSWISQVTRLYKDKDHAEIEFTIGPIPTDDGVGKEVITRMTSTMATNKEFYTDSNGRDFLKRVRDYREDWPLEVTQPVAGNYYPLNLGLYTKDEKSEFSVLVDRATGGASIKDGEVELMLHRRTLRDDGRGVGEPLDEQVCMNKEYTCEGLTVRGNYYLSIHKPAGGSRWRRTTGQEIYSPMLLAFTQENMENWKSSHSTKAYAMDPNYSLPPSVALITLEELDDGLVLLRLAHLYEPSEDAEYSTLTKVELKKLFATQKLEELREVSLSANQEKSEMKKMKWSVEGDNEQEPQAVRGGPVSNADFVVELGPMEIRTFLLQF
Nature of the experiment: Inhibition of jack bean alpha-mannosidase assessed as release of p-nitrophenol at 1000 uM using p-nitrophenyl glycoside as substrate by spectrometric assay relative to control.

Experiment [6] is filed under the species Bos taurus. Nature of the experiment: Inhibition of bovine liver beta-glucosidase assessed as release of p-nitrophenol at 1000 uM using p-nitrophenyl glycoside as substrate by spectrometric assay relative to control.
Experiment [7] deals with Alpha-galactosidase (Coffea arabica) (UniProt Q42656). As to the kind of experiment: Inhibition of coffee beans alpha-galactosidase assessed as release of p-nitrophenol at 1000 uM using p-nitrophenyl glycoside as substrate by spectrometric assay relative to control.
The next experiment is filed under the species Sus scrofa. As to the kind of experiment: Inhibition of porcine kidney alpha-trehalase assessed as release of p-nitrophenol at 1000 uM using p-nitrophenyl glycoside as substrate by spectrometric assay relative to control.
Another experiment deals with Helix pomatia. Nature of the experiment: Inhibition of snail beta-mannosidase assessed as release of p-nitrophenol at 1000 uM using p-nitrophenyl glycoside as substrate by spectrometric assay relative control.
The next experiment relates to Escherichia coli. Nature of the experiment: Inhibition of Escherichia coli beta-glucuronidase assessed as release of p-nitrophenol at 1000 uM using p-nitrophenyl glycoside as substrate by spectrometric assay relative to control.
The target in experiment [8] is T1, Lysosomal alpha-glucosidase. Nature of the experiment: Inhibition of human lysosomal alpha glucosidase assessed as release of p-nitrophenol at 1000 uM using p-nitrophenyl glycoside as substrate by spectrometric assay relative to control.
The species entered for experiment [9] is Bos taurus. Nature of the experiment: Inhibition of bovine liver beta-galactosidase assessed as release of p-nitrophenol at 1000 uM using p-nitrophenyl glycoside as substrate by spectrometric assay relative to control.
For experiment [10], the target named is Sucrase-isomaltase, intestinal (Rattus norvegicus) (UniProt P23739). Nature of the experiment: Inhibition of rat intestinal sucrase assessed as release of p-nitrophenol at 1000 uM using p-nitrophenyl glycoside as substrate by spectrometric assay relative to control.
The subject of the next experiment is Aspergillus niger. As to the kind of experiment: Inhibition of Aspergillus niger amyloglucosidase assessed as release of p-nitrophenol at 1000 uM using p-nitrophenyl glycoside as substrate by spectrometric assay relative to control.
Another experiment deals with Saccharomyces cerevisiae. Nature of the experiment: Inhibition of yeast alpha-glucosidase assessed as release of p-nitrophenol at 1000 uM using p-nitrophenyl glycoside as substrate by spectrometric assay relative to control.
The species named for experiment [11] is Bos taurus. Nature of the experiment: Inhibition of bovine liver beta-glucronidase assessed as release of p-nitrophenol at 1000 uM using p-nitrophenyl glycoside as substrate by spectrometric assay relative to control.
The target of experiment [12] is T4, Tissue alpha-L-fucosidase (Bos taurus) (UniProt Q2KIM0).
T4 sequence (whole entry): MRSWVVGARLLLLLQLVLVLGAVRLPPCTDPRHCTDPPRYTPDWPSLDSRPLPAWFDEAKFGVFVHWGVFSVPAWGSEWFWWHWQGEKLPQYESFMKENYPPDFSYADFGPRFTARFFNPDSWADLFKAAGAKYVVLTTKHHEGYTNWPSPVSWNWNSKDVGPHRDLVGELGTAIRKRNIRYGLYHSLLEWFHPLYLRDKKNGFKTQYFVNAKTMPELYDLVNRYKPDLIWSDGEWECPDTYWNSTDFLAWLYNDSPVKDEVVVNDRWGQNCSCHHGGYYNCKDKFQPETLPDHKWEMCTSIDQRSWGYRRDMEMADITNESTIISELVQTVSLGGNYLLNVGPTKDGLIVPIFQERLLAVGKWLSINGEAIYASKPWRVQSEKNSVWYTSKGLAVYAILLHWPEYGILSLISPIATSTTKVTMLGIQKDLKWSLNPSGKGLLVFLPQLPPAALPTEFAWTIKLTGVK
Nature of the experiment: Inhibition of bovine kidney alpha-L-fucosidase assessed as release of p-nitrophenol at 1000 uM using p-nitrophenyl glycoside as substrate by spectrometric assay relative to control.

A further experiment relates to Oryza sativa. As to the kind of experiment: Inhibition of rice alpha-glucosidase assessed as release of p-nitrophenol at 1000 uM using p-nitrophenyl glycoside as substrate by spectrometric assay relative to control.
Another experiment relates to Penicillium decumbens. As to the kind of experiment: Inhibition of Penicillium decumbens alpha-L-rhamnosidase assessed as release of p-nitrophenol at 1000 uM using p-nitrophenyl glycoside as substrate by spectrometric assay relative to control.
Experiment [13] can be described thus: Inhibition of yeast alpha-glucosidase assessed as release of p-nitrophenol using p-nitrophenyl glycoside as substrate by spectrometric assay. Details: species or system Saccharomyces cerevisiae.
Experiment [14] is described as follows: Inhibition of bovine liver beta-galactosidase assessed as release of p-nitrophenol using p-nitrophenyl glycoside as substrate by spectrometric assay. On the set-up: species or system Bos taurus.
Experiment [15] is described as follows: Inhibition of rice alpha-glucosidase assessed as release of p-nitrophenol using p-nitrophenyl glycoside as substrate by spectrometric assay. On the set-up: species or system Oryza sativa.
Experiment [16] can be described thus: Inhibition of Aspergillus niger amyloglucosidase assessed as release of p-nitrophenol using p-nitrophenyl glycoside as substrate by spectrometric assay.
Experiment [17] is described as follows: Inhibition of porcine kidney alpha-trehalase assessed as release of p-nitrophenol using p-nitrophenyl glycoside as substrate by spectrometric assay. On the set-up: species or system Sus scrofa.
Experiment [18] can be described thus: Inhibition of Escherichia coli beta-glucuronidase assessed as release of p-nitrophenol using p-nitrophenyl glycoside as substrate by spectrometric assay.

Chain of Alpha-galactosidase (Coffea arabica) (Q42656 16-378 limits assumed): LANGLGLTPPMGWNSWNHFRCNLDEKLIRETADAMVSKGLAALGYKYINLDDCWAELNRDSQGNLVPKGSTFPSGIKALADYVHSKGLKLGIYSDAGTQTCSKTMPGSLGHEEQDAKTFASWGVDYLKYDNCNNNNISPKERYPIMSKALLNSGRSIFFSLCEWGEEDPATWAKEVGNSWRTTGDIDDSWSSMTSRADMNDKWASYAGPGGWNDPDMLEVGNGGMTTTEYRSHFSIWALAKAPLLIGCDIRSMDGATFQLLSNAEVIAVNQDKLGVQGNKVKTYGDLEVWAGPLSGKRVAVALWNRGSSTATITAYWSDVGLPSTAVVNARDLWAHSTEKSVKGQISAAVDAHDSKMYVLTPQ
T2 sequence (P23739 1-1013 limits assumed): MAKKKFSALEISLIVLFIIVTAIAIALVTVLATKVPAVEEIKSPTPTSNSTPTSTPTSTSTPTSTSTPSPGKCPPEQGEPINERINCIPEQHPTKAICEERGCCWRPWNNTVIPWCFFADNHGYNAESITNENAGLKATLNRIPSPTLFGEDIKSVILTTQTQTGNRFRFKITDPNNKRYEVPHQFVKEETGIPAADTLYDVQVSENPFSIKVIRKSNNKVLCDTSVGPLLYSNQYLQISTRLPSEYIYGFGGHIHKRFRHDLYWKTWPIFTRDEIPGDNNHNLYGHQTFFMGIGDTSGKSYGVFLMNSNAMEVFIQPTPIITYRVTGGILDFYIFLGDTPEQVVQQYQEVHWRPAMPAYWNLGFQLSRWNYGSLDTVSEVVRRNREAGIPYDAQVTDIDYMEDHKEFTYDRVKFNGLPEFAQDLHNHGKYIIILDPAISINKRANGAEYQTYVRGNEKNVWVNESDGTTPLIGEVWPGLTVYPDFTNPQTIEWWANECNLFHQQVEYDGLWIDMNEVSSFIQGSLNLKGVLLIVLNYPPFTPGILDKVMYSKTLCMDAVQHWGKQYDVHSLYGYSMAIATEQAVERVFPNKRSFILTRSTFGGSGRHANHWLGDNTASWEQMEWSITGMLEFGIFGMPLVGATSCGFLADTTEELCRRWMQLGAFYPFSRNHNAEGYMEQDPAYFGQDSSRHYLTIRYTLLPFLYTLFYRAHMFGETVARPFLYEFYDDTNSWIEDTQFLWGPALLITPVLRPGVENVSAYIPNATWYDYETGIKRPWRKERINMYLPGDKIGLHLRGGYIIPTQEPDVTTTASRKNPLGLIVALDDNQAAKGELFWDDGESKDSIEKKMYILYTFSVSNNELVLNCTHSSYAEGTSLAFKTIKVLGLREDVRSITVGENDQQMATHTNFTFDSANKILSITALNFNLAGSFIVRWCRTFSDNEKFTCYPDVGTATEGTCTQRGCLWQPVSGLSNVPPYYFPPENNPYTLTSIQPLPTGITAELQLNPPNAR
T2 sequence (P23739 1014-1841 limits assumed): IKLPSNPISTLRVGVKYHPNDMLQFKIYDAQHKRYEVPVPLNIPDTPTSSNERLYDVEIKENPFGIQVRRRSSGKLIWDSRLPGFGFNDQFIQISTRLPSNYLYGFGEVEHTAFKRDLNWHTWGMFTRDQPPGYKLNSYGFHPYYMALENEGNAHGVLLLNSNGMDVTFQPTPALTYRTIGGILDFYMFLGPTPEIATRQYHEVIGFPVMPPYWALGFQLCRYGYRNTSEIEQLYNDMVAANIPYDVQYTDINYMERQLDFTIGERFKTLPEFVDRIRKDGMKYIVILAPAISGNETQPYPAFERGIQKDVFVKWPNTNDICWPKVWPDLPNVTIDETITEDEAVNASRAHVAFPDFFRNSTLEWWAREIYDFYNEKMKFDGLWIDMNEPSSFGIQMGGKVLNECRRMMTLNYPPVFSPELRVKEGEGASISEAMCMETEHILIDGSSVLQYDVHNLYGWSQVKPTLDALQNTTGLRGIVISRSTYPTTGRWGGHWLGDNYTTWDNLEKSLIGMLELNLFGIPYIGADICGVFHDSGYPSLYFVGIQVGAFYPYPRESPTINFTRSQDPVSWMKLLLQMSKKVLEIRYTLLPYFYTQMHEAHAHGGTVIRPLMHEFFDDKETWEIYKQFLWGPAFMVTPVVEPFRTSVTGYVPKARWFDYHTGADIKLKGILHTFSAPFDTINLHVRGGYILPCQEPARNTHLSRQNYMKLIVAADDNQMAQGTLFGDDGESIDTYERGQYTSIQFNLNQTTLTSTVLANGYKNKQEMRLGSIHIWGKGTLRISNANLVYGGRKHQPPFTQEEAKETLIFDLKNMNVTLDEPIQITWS
Chain of Sucrase-isomaltase, intestinal (Rattus norvegicus) (P23739 1-1013 limits assumed): as the sequence (P23739 1-1013 limits assumed) above
Chain of Sucrase-isomaltase, intestinal (Rattus norvegicus) (P23739 1014-1841 limits assumed): as the sequence (P23739 1014-1841 limits assumed) above

In the case of `CCCCCCCCC[C@@]1(CO)NC[C@H](O)[C@H]1O`, the IC50 in experiment [1] amounted to 3.7 µM; in experiment [2] it was 430 µM; in [3] it was 0.68 µM; in experiment [4], 113 µM. Also, in the experiment on Prunus dulcis, the inhibition was 0%.

For `CCCC[C@@]1(CO)NC[C@H](O)[C@H]1O`, the IC50 stood at 2.4 µM in experiment [1], 226 µM in [2], 0.23 µM in experiment [3] and 13 µM in [4]. Moreover, in the experiment on Prunus dulcis, the inhibition turned out to be 0.9%.

Take `OC[C@]1(c2ccccc2)NC[C@H](O)[C@H]1O`: the 50% inhibitory concentration (IC50) worked out at 0.63 µM in experiment [1], 71 µM in [2], 0.48 µM in experiment [3] and 32 µM in experiment [4]. Also, in the experiment with Prunus dulcis, the inhibition was found to be 0.9%.

With `OC[C@@]1(c2ccccc2)NC[C@@H](O)[C@@H]1O`, the inhibition in experiment [5] stood at 0%; in the experiment filed under Bos taurus [6], 29.6%; in experiment [7], 9.9%; in the experiment listed under Sus scrofa it was 0.8%; in the experiment on Helix pomatia, 0%; in the experiment on Escherichia coli it was 7.3%. In addition, the inhibition came out at 35% in experiment [8]; 34.1% in the experiment listed under Bos taurus [9]; 42.8% in experiment [10]; 0% in the experiment with Aspergillus niger; 22% in the experiment on Saccharomyces cerevisiae; 1.8% in the experiment filed under Bos taurus [11]. Also, the inhibition stood at 2.3% in the experiment on Prunus dulcis, 0% in experiment [12], 18.6% in the experiment on Oryza sativa and 0% in the experiment with Penicillium decumbens.

`CCCCCCCCC[C@]1(CO)NC[C@@H](O)[C@@H]1O`: the inhibition in experiment [5] worked out at 0%; in the experiment filed under Bos taurus [6], 49.2%; in experiment [7], 2.5%; in the experiment filed under Sus scrofa, 6.4%; with Helix pomatia, 0%; with Escherichia coli, 31.6%. Moreover, the inhibition in the experiment with Aspergillus niger amounted to 3.9%; in the experiment listed under Bos taurus [11] it was 4.6%; in the experiment with Prunus dulcis it was 6.8%; in [12], 0%; in the experiment with Penicillium decumbens, 0%. Further, the IC50 stood at 130 µM in [1]; 455 µM in experiment [3]; 116 µM in experiment [13]; 477 µM in [14]; 727 µM in experiment [15].

`C[C@@]1(CO)NC[C@H](O)[C@H]1O`: the IC50 was 5.6 µM in [1], 183 µM in experiment [2], 0.64 µM in experiment [3] and 2 µM in experiment [4]. In the experiment with Prunus dulcis, the inhibition was found to be 6.2%.

For the compound `OC[C@H]1NC[C@@H](O)[C@@H]1O`, the inhibition in the experiment on Helix pomatia, in the experiment filed under Bos taurus [9] and in the experiment with Penicillium decumbens was under 50% throughout. Further, the IC50 is 638 µM in experiment [2], 362 µM in experiment [16], 0.15 µM in [13] and 4.8 µM in [17].

For `CCCC[C@]1(CO)NC[C@@H](O)[C@@H]1O`, the inhibition in experiment [5] stood at 1.9%; in the experiment listed under Bos taurus [6] it was 34.3%; in [7] it was 4.6%; in the experiment listed under Sus scrofa, 2.4%; in the experiment on Helix pomatia, 3.6%; in the experiment listed under Bos taurus [9], 36.9%. Also, the inhibition in the experiment on Aspergillus niger was 2%; with Saccharomyces cerevisiae, 32.7%; in the experiment filed under Bos taurus [11], 7.2%; in the experiment on Prunus dulcis, 8%; in [12], 20.8%; in the experiment on Penicillium decumbens it was 11.3%. Besides, the IC50 in [1] is 79 µM; in experiment [3], 2.3 µM; in experiment [18], 774 µM; in experiment [15] it was 59 µM.

As for `COc1ccc([C@@]2(CO)NC[C@H](O)[C@H]2O)cc1`, the inhibition in the experiment listed under Bos taurus [6] stood at 43%; in the experiment on Prunus dulcis, 7.1%. Also, the concentration for half-maximal inhibition (IC50) came out at 601 µM in [1], 0.33 µM in [3] and 650 µM in experiment [4].

Broadly, the IC50 is the point on the concentration scale where inhibition reaches its midpoint. As usually defined, the inhibition is the relative decrease from the control value, in per cent.

These data come from ChEMBL document CHEMBL5131499, “Design, synthesis and glycosidase inhibition of C-4 branched LAB and DAB derivatives” (Eur J Med Chem, 2022).
